Molecules are shown by their SMILES. Counter-ions that a name gives are not always drawn.

For series [1], the system named is guinea-pig eosinophils. Kind of series: Chemotaxis inhibition assay: LTB4-induced chemotaxis in guinea-pig eosinophils. Particulars: Cavia porcellus, Eosinophil, test substance 1×10^−5 M, LTB4 10^−8 M, 2 hours. The format is cell-based. As to the method: 1) Guinea-pig Eosinophil Preparation
Male Hartley guinea-pigs received 2 ml of equine serum (Bio-Whittaker, Inc) intraperitoneally once a week for successive 8 weeks. 48 hours after the last administration, 75 ml of physiological saline was injected into the peritoneal cavity, and the fluid was recovered and centrifuged at 400 G for 5 minutes. […] Erythrocytes in the isolated cell pellet, if any, were removed by hypotonic treatment (suspended in water for 30 seconds).
2) Chemotaxis Inhibition Assay
600 μl of LTB4 suspended in Hanks-Hepes-HSA (final concentration of 10^−8 M, Cascade Biochemical Ltd.) was placed in the lower compartment of a 24-well plate and kept at 37° C. for 30 minutes in a CO2 gas incubator. After mounting a Chemotaxicell (polycarbonate membrane, pore size 3 μm, thickness 10 μm), which served as an upper compartment, on the 24-well plate described above, 200 μl of eosinophil suspension (5×10^6 cells/ml), which had been incubated at 37° C. for 15 minutes in a thermostat chamber, was added to the upper compartment. After allowing to react for 2 hours in the CO2 gas incubator, the Chemotaxicell was removed, and 60 μl of 2% (w/v) EDTA solution in physiological saline was added to the lower compartment. After cooling on ice, the cells which underwent the chemotaxis into the lower compartment were counted using a blood cell counter (Coulter Counter (trade name)). In the procedure described above, the test substance was dissolved in N,N-dimethylformamide (DMF) and added to the upper and lower compartments at the final concentration of 10^−5 M.
% Chemotaxis inhibition=[…] [Equation 2]
The results are shown in [Table 2].

Broadly, the melting point is the temperature, or range, at which the solid turns liquid. The molecule `Cl.O=c1[nH]c(=O)n(CCCCN2CCC(c3c[nH]c4ccccc34)CC2)c2ccccc12` showed a melting point of 250 to 252 °C.

In the case of `O=C(O)Cn1c(=O)c2ccccc2n(CCCCN2CCC(OC(c3ccccc3)c3ccccc3)CC2)c1=O` [Example 50, 2,4-Dioxo-1-[4-(4-diphenylmethoxypiperidino)butyl]-1,2,3,4-tetrahydroquinazoline-3-acetic acid], the melting point was in the range of 184 to 186 °C. On the same count and under the same terms, the result for `O=C(O)c1ccc2c(=O)[nH]c(=O)n(CCCCN3CCC(OC(c4ccccc4)c4ccccc4)CC3)c2c1` [Example 90, 2,4-Dioxo-1-[4-(4-diphenylmethoxypiperidino)butyl]-1,2,3,4-tetrahydroquinazoline-7-carboxylic acid] reads 177 to 179 °C. The inhibition is the change of the read-out against control, counted positive when it falls. Low values mean little suppression, high ones strong suppression. `COC(=O)C1(n2c(=O)c3ccccc3n(CCCCN3CCC(OC(c4ccccc4)c4ccccc4)CC3)c2=O)CCCCC1` [Example 97, Methyl 1-[2,4-dioxo-1-[4-(4-diphenylmethoxypiperidino)butyl]-1,2,3,4-tetrahydroquinazolin-3-yl]-1-cyclohexylcarboxylate hydrochloride] had an inhibition at 10 µM in series [1] of 62%. For the molecule `O=c1[nH]c2ccccc2c(=O)n1CCCCN1CCC(OC(c2ccccc2)c2ccccc2)CC1` [Example 80, 2,4-Dioxo-3-[4-(4-diphenylmethoxypiperidino)butyl]-1,2,3,4-tetrahydroquinazoline], the melting point lay in the range of 140 to 142 °C. Still for that read-out and setting: the result for `O=C(O)c1ccc2c(c1)c(=O)[nH]c(=O)n2CCCCN1CCC(OC(c2ccccc2)c2ccccc2)CC1` [Example 89, 2,4-Dioxo-1-[4-(4-diphenylmethoxypiperidino)butyl]-1,2,3,4-tetrahydroquinazoline-6-carboxylic acid] reads 161 to 163 °C. The same measure, in the same setting: for `Cl.O=c1[nH]c(=O)n(CCCCN2CCN(C(c3ccccc3)c3ccccc3)CC2)c2ccccc12` the value was 161 to 163 °C; for `O=C(O)CCCCn1c(=O)c2cc(O)ccc2n(CCCCN2CCC(OC(c3ccccc3)c3ccccc3)CC2)c1=O` [Example 105, 2,4-Dioxo-1-[4-(4-diphenylmethoxypiperidino)butyl]-6-hydroxy-1,2,3,4-tetrahydroquinazoline-3-valeric acid], 234 to 236 °C. The same measure, in the same setting: the result for `COC(=O)C1(n2c(=O)c3ccccc3n(CCCCN3CCC(OC(c4ccccc4)c4ccccc4)CC3)c2=O)CCCC1.Cl` reads 178 to 180 °C; that for `Cl.Cn1c(=O)c2ccccc2n(CCCN2CCC(OC(c3ccccc3)c3ccccc3)CC2)c1=O`, 127 to 128 °C; that for `O=c1[nH]c(=O)n(CCCN2CCC(OC(c3ccccc3)c3ccccc3)CC2)c2ccccc12` [Example 1, 2,4-Dioxo-1-[3-(4-diphenylmethoxy-1-piperidinyl)propyl]-1,2,3,4-tetrahydroquinazoline], 149 to 151 °C.

`O=C(O)Cn1c(=O)c2ccccc2n(CCCN2CCC(OC(c3ccccc3)c3ccccc3)CC2)c1=O` [Example 49, 2,4-Dioxo-1-[3-(4-diphenylmethoxypiperidino)propyl]-1,2,3,4-tetrahydroquinazoline-3-acetic acid] showed a melting point of 170 to 172 °C. With `COC(=O)Cn1c(=O)c2ccccc2n(CCCN2CCC(OC(c3ccccc3)c3ccccc3)CC2)c1=O` [Example 14, Methyl 2,4-dioxo-1-[3-(4-diphenylmethoxypiperidino)propyl]-1,2,3,4-tetrahydroquinazoline-3-acetate], the melting point was in the range of 109 to 110 °C. Same read-out and setting: the result for `O=c1[nH]c2ccccc2c(=O)n1CCCN1CCC(OC(c2ccccc2)c2ccccc2)CC1` [Example 79, 2,4-Dioxo-3-[3-(4-diphenylmethoxypiperidino)propyl]-1,2,3,4-tetrahydroquinazoline] reads 173 to 175 °C; that for `O=C(O)CCn1c(=O)n(CCCN2CCC(OC(c3ccccc3)c3ccccc3)CC2)c(=O)c2ccccc21` [Example 75, 2,4-Dioxo-3-[3-(4-diphenylmethoxypiperidino)propyl]-1,2,3,4-tetrahydroquinazoline-1-propionic acid], 237 to 238 °C; that for `O=c1[nH]c(=O)n(CCCCCN2CCC(OC(c3ccccc3)c3ccccc3)CC2)c2ccccc12` [Example 3, 2,4-Dioxo-1-[5-(4-diphenylmethoxy-1-piperidinyl)pentyl]-1,2,3,4-tetrahydroquinazoline], 173 to 174 °C.

For the molecule `O=C(O)Cn1c(=O)n(CCCCN2CCC(OC(c3ccccc3)c3ccccc3)CC2)c(=O)c2ccccc21` [Example 72, 2,4-Dioxo-3-[4-(4-diphenylmethoxypiperidino)butyl]-1,2,3,4-tetrahydroquinazoline-1-acetic acid], the melting point was in the range of 153 to 155 °C. On to `O=C(O)CCCn1c(=O)n(CCCCN2CCC(OC(c3ccccc3)c3ccccc3)CC2)c(=O)c2ccccc21` [Example 78, 2,4-Dioxo-3-[4-(4-diphenylmethoxypiperidino)butyl]-1,2,3,4-tetrahydroquinazoline-1-butyric acid], for which the melting point is 227 to 229 °C.

Consider `Nc1ccc2c(=O)[nH]c(=O)n(CCCCN3CCC(OC(c4ccccc4)c4ccccc4)CC3)c2c1` [Example 39, 7-Amino-2,4-dioxo-1-[4-(4-diphenylmethoxypiperidino)butyl]-1,2,3,4-tetrahydroquinazoline], for which the melting point is 162 to 164 °C. `CN(C)c1ccc2c(c1)c(=O)[nH]c(=O)n2CCCCN1CCC(OC(c2ccccc2)c2ccccc2)CC1` [Example 42, 6-Dimethylamino-2,4-dioxo-1-[4-(4-diphenylmethoxypiperidino)butyl]-1,2,3,4-tetrahydroquinazoline] yielded a melting point of 165 to 167 °C.

`COC(=O)C(C)(C)c1ccc2c(c1)c(=O)[nH]c(=O)n2CCCCN1CCC(OC(c2ccccc2)c2ccccc2)CC1.Cl` registered a melting point of 223 to 225 °C.

Regarding `Cl.O=c1c2ccccc2n(CCCCN2CCC(OC(c3ccccc3)c3ccccc3)CC2)c(=O)n1C1CCCCC1`, the melting point is 206 to 208 °C. In turn, `O=c1[nH]c(=O)n(CCCCN2CCC(OC(c3ccccc3)c3ccccc3)CC2)c2cc(Cl)ccc12` [Example 9, 7-Chloro-2,4-dioxo-1-[4-(4-diphenylmethoxypiperidino)butyl]-1,2,3,4-tetrahydroquinazoline] showed a melting point of 169 to 171 °C. Molecule `CS(=O)(=O)Nc1ccc2c(c1)c(=O)[nH]c(=O)n2CCCCN1CCC(OC(c2ccccc2)c2ccccc2)CC1.Cl` returned a melting point of 225 to 227 °C. On the same count and under the same terms, the result for `O=C(O)CC(=O)Nc1ccc2c(c1)c(=O)[nH]c(=O)n2CCCCN1CCC(OC(c2ccccc2)c2ccccc2)CC1` [Example 48, [2,4-Dioxo-1-[4-(4-diphenylmethoxypiperidino)butyl]-1,2,3,4-tetrahydro-6-quinazolinyl]carbamoylacetic acid] reads 166 to 168 °C; that for `N#CCCCCn1c(=O)c2ccccc2n(CCCCN2CCC(OC(c3ccccc3)c3ccccc3)CC2)c1=O` (as salt: hydrochloride) [Example 93, 2,4-Dioxo-1-[4-(4-diphenylmethoxypiperidino)butyl]-1,2,3,4-tetrahydroquinazoline-3-valeronitrile], 119 to 121 °C; that for `N#Cn1c(=O)c2ccccc2n(CCCCN2CCC(OC(c3ccccc3)c3ccccc3)CC2)c1=O` [Example 92, 2,4-Dioxo-1-[4-(4-diphenylmethoxypiperidino)butyl]-1,2,3,4-tetrahydroquinazoline-3-carbonitrile], 106 to 107 °C.

For the molecule `COC(=O)Cn1c(=O)c2ccccc2n(CCCCN2CCC(OC(c3ccccc3)c3ccccc3)CC2)c1=O` [Example 15, Methyl 2,4-dioxo-1-[4-(4-diphenylmethoxypiperidino)butyl]-1,2,3,4-tetrahydroquinazoline-3-acetate], the melting point lay in the range of 91 to 93 °C. On the same count and under the same terms, for `COC(=O)c1ccc2c(=O)[nH]c(=O)n(CCCCN3CCC(OC(c4ccccc4)c4ccccc4)CC3)c2c1` [Example 85, Methyl 2,4-dioxo-1-[4-(4-diphenylmethoxypiperidino)butyl]-1,2,3,4-tetrahydroquinazoline-7-carboxylate] the value was 192 to 194 °C; for `Cl.O=c1[nH]c(=O)n(CCCCN2CCC(OC(c3ccccc3)c3ccccc3)CC2)c2ncccc12`, 121 to 123 °C; for `O=C(O)CCn1c(=O)n(CCCCN2CCC(OC(c3ccccc3)c3ccccc3)CC2)c(=O)c2ccccc21` [Example 76, 2,4-Dioxo-3-[4-(4-diphenylmethoxypiperidino)butyl]-1,2,3,4-tetrahydroquinazoline-1-propionic acid], 110 to 112 °C. `O=C(O)CCn1c(=O)c2ccccc2n(CCCN2CCC(OC(c3ccccc3)c3ccccc3)CC2)c1=O` [Example 51, 2,4-Dioxo-1-[3-(4-diphenylmethoxypiperidino)propyl]-1,2,3,4-tetrahydroquinazoline-3-propionic acid]: the melting point lay within 150 to 151 °C.

In turn, `O=c1[nH]c(=O)n(CCCCN2CCC(OC(c3ccccc3)c3ccccc3)CC2)c2cc([N+](=O)[O-])ccc12` [Example 11, 2,4-Dioxo-1-[4-(4-diphenylmethoxypiperidino)butyl]-7-nitro-1,2,3,4-tetrahydroquinazoline] yielded a melting point of 214 to 215 °C.

These data come from patent US6407116B1, “Nitrogenous fused-ring compounds, process for the preparation of the same, and drugs” (Takeda Chemical Industries, Inc., priority 1997, dated 2002).
